Assays:
Format in all cases: functional
MOLT-4 = test: Growth inhibition of human MOLT4 cells assessed as cell growth incubated for 48 hrs by sulforhodamine B assay; parameters: concentration or dose not given beside the values
RPMI-8226 = test: Growth inhibition of human RPMI8226 cells assessed as cell growth incubated for 48 hrs by sulforhodamine B assay; parameters: concentration or dose not given beside the values
K562 = test: Growth inhibition of human K562 cells assessed as cell growth incubated for 48 hrs by sulforhodamine B assay; parameters: concentration or dose not given beside the values
CCRF-CEM = test: Growth inhibition of human CCRF-CEM cells assessed as cell growth incubated for 48 hrs by sulforhodamine B assay; parameters: concentration or dose not given beside the values
HL-60(TB) = test: Growth inhibition of human HL-60(TB) cells assessed as cell growth incubated for 48 hrs by sulforhodamine B assay; parameters: concentration or dose not given beside the values
SR = test: Growth inhibition of human SR cells assessed as cell growth incubated for 48 hrs by sulforhodamine B assay; parameters: concentration or dose not given beside the values
A549 = test: Growth inhibition of human A549/ATCC cells assessed as cell growth incubated for 48 hrs by sulforhodamine B assay; parameters: concentration or dose not given beside the values
HOP-62 = test: Growth inhibition of human HOP62 cells assessed as cell growth incubated for 48 hrs by sulforhodamine B assay; parameters: concentration or dose not given beside the values
HOP-92 = test: Growth inhibition of human HOP92 cells assessed as cell growth incubated for 48 hrs by sulforhodamine B assay; parameters: concentration or dose not given beside the values
NCI-H226 = test: Growth inhibition of human NCI-H226 cells assessed as cell growth incubated for 48 hrs by sulforhodamine B assay; parameters: concentration or dose not given beside the values
NCI-H23 = test: Growth inhibition of human NCI-H23 cells assessed as cell growth incubated for 48 hrs by sulforhodamine B assay; parameters: concentration or dose not given beside the values
NCI-H322M = test: Growth inhibition of human NCI-H322M cells assessed as cell growth incubated for 48 hrs by sulforhodamine B assay; parameters: scale not given: the % may be the effect or the level left
NCI-H460 = test: Growth inhibition of human NCI-H460 cells assessed as cell growth incubated for 48 hrs by sulforhodamine B assay; parameters: concentration or dose not given beside the values
NCI-H522 = test: Growth inhibition of human NCI-H522 cells assessed as cell growth incubated for 48 hrs by sulforhodamine B assay; parameters: concentration or dose not given beside the values
COLO 205 = test: Growth inhibition of human COLO205 cells assessed as cell growth incubated for 48 hrs by sulforhodamine B assay; parameters: concentration or dose not given beside the values
HCC 2998 = test: Growth inhibition of human HCC2998 cells assessed as cell growth incubated for 48 hrs by sulforhodamine B assay; parameters: concentration or dose not given beside the values
HCT-116 = test: Growth inhibition of human HCT116 cells assessed as cell growth incubated for 48 hrs by sulforhodamine B assay; parameters: concentration or dose not given beside the values
HCT-15 = test: Growth inhibition of human HCT15 cells assessed as cell growth incubated for 48 hrs by sulforhodamine B assay; parameters: scale not given: the % may be the effect or the level left
HT-29 = test: Growth inhibition of human HT-29 cells assessed as cell growth incubated for 48 hrs by sulforhodamine B assay; parameters: concentration or dose not given beside the values
KM12 = test: Growth inhibition of human KM12 cells assessed as cell growth incubated for 48 hrs by sulforhodamine B assay; parameters: concentration or dose not given beside the values
SW-620 = test: Growth inhibition of human SW620 cells assessed as cell growth incubated for 48 hrs by sulforhodamine B assay; parameters: concentration or dose not given beside the values
SF-268 = test: Growth inhibition of human SF268 cells assessed as cell growth incubated for 48 hrs by sulforhodamine B assay; parameters: concentration or dose not given beside the values
SF-295 = test: Growth inhibition of human SF295 cells assessed as cell growth incubated for 48 hrs by sulforhodamine B assay; parameters: concentration or dose not given beside the values
SF-539 = test: Growth inhibition of human SF539 cells assessed as cell growth incubated for 48 hrs by sulforhodamine B assay; parameters: scale not given: the % may be the effect or the level left
SNB-19 = test: Growth inhibition of human SNB19 cells assessed as cell growth incubated for 48 hrs by sulforhodamine B assay; parameters: concentration or dose not given beside the values
SNB-75 = test: Growth inhibition of human SNB75 cells assessed as cell growth incubated for 48 hrs by sulforhodamine B assay; parameters: concentration or dose not given beside the values
U-251 = test: Growth inhibition of human U251 cells assessed as cell growth incubated for 48 hrs by sulforhodamine B assay; parameters: concentration or dose not given beside the values
LOX IMVI = test: Growth inhibition of human LOXIMVI cells assessed as cell growth incubated for 48 hrs by sulforhodamine B assay; parameters: concentration or dose not given beside the values
Malme-3M = test: Growth inhibition of human MALME-3M cells assessed as cell growth incubated for 48 hrs by sulforhodamine B assay; parameters: scale not given: the % may be the effect or the level left
M14 = test: Growth inhibition of human M14 cells assessed as cell growth incubated for 48 hrs by sulforhodamine B assay; parameters: concentration or dose not given beside the values
MDA-MB-435 = test: Growth inhibition of human MDA-MB-435 cells assessed as cell growth incubated for 48 hrs by sulforhodamine B assay; parameters: concentration or dose not given beside the values
SK-MEL-2 = test: Growth inhibition of human SK-MEL-2 cells assessed as cell growth incubated for 48 hrs by sulforhodamine B assay; parameters: concentration or dose not given beside the values
SK-MEL-28 = test: Growth inhibition of human SK-MEL-28 cells assessed as cell growth incubated for 48 hrs by sulforhodamine B assay; parameters: concentration or dose not given beside the values
SK-MEL-5 = test: Growth inhibition of human SK-MEL-5 cells assessed as cell growth incubated for 48 hrs by sulforhodamine B assay; parameters: concentration or dose not given beside the values
UACC-257 = test: Growth inhibition of human UACC257 cells assessed as cell growth incubated for 48 hrs by sulforhodamine B assay; parameters: concentration or dose not given beside the values
UACC-62 = test: Growth inhibition of human UACC62 cells assessed as cell growth incubated for 48 hrs by sulforhodamine B assay; parameters: concentration or dose not given beside the values
IGROV-1 = test: Growth inhibition of human IGROV1 cells assessed as cell growth incubated for 48 hrs by sulforhodamine B assay; parameters: scale not given: the % may be the effect or the level left
OVCAR-3 = test: Growth inhibition of human OVCAR3 cells assessed as cell growth incubated for 48 hrs by sulforhodamine B assay; parameters: concentration or dose not given beside the values
OVCAR-4 = test: Growth inhibition of human OVCAR4 cells assessed as cell growth incubated for 48 hrs by sulforhodamine B assay; parameters: concentration or dose not given beside the values
OVCAR-5 = test: Growth inhibition of human OVCAR5 cells assessed as cell growth incubated for 48 hrs by sulforhodamine B assay; parameters: scale not given: the % may be the effect or the level left
OVCAR-8 = test: Growth inhibition of human OVCAR8 cells assessed as cell growth incubated for 48 hrs by sulforhodamine B assay; parameters: concentration or dose not given beside the values
NCI/ADR-RES = test: Growth inhibition of human NCI/ADR-RES cells assessed as cell growth incubated for 48 hrs by sulforhodamine B assay; parameters: concentration or dose not given beside the values
SK-OV-3 = test: Growth inhibition of human SKOV3 cells assessed as cell growth incubated for 48 hrs by sulforhodamine B assay; parameters: concentration or dose not given beside the values
786-0 = test: Growth inhibition of human 786-0 cells assessed as cell growth incubated for 48 hrs by sulforhodamine B assay; parameters: concentration or dose not given beside the values
A498 = test: Growth inhibition of human A498 cells assessed as cell growth incubated for 48 hrs by sulforhodamine B assay; parameters: concentration or dose not given beside the values
ACHN = test: Growth inhibition of human ACHN cells assessed as cell growth incubated for 48 hrs by sulforhodamine B assay; parameters: scale not given: the % may be the effect or the level left
CAKI-1 = test: Growth inhibition of human Caki1 cells assessed as cell growth incubated for 48 hrs by sulforhodamine B assay; parameters: concentration or dose not given beside the values
RXF 393 = test: Growth inhibition of human RXF393 cells assessed as cell growth incubated for 48 hrs by sulforhodamine B assay; parameters: concentration or dose not given beside the values
SN12C = test: Growth inhibition of human SN12C cells assessed as cell growth incubated for 48 hrs by sulforhodamine B assay; parameters: concentration or dose not given beside the values
TK-10 = test: Growth inhibition of human TK10 cells assessed as cell growth incubated for 48 hrs by sulforhodamine B assay; parameters: concentration or dose not given beside the values
UO-31 = test: Growth inhibition of human UO31 cells assessed as cell growth incubated for 48 hrs by sulforhodamine B assay; parameters: concentration or dose not given beside the values
PC-3 = test: Growth inhibition of human PC3 cells assessed as cell growth incubated for 48 hrs by sulforhodamine B assay; parameters: concentration or dose not given beside the values
DU-145 = test: Growth inhibition of human DU145 cells assessed as cell growth incubated for 48 hrs by sulforhodamine B assay; parameters: concentration or dose not given beside the values
MCF7 = test: Growth inhibition of human MCF7 cells assessed as cell growth incubated for 48 hrs by sulforhodamine B assay; parameters: concentration or dose not given beside the values
MDA-MB-231 = test: Growth inhibition of human MDA-MB-231 cells assessed as cell growth incubated for 48 hrs by sulforhodamine B assay; parameters: concentration or dose not given beside the values
Hs-578T = test: Growth inhibition of human Hs 578T cells assessed as cell growth incubated for 48 hrs by sulforhodamine B assay; parameters: concentration or dose not given beside the values
BT-549 = test: Growth inhibition of human BT549 cells assessed as cell growth incubated for 48 hrs by sulforhodamine B assay; parameters: concentration or dose not given beside the values
T47D = test: Growth inhibition of human T47D cells assessed as cell growth incubated for 48 hrs by sulforhodamine B assay; parameters: concentration or dose not given beside the values
MDA-MB-468 = test: Growth inhibition of human MDA-MB-468 cells assessed as cell growth incubated for 48 hrs by sulforhodamine B assay; parameters: concentration or dose not given beside the values

O=C([O-])CCc1ccc2c(=O)c3sc4c(=O)c5ccccc5c(=O)c4c3c(=O)c2c1.[Na+]
Activity (MOLT-4): -18.02%
Activity (RPMI-8226): -23.33%
Activity (K562): 1.66%
Activity (CCRF-CEM): -11.89%
Activity (HL-60(TB)): -1.51%
Activity (SR): -13.25%
Activity (A549): -52.48%
Activity (HOP-62): -94.95%
Activity (HOP-92): 21.71%
Activity (NCI-H226): -50.22%
Activity (NCI-H23): -48.38%
Activity (NCI-H322M): -96.32%
Activity (NCI-H460): -47.6%
Activity (NCI-H522): -56.08%
Activity (COLO 205): -95.3%
Activity (HCC 2998): -78.44%
Activity (HCT-116): -11.85%
Activity (HCT-15): -51.47%
Activity (HT-29): -35.38%
Activity (KM12): -4.86%
Activity (SW-620): -35.47%
Activity (SF-268): -4.66%
Activity (SF-295): -92.24%
Activity (SF-539): -99.93%
Activity (SNB-19): -46.21%
Activity (SNB-75): -92.01%
Activity (U-251): -19.72%
Activity (LOX IMVI): -79.48%
Activity (Malme-3M): -95.72%
Activity (M14): -92.46%
Activity (MDA-MB-435): -79.57%
Activity (SK-MEL-2): -61.62%
Activity (SK-MEL-28): -86.88%
Activity (SK-MEL-5): -98.11%
Activity (UACC-257): -93.7%
Activity (UACC-62): -86.72%
Activity (IGROV-1): -45.75%
Activity (OVCAR-3): -20.41%
Activity (OVCAR-4): 3.01%
Activity (OVCAR-5): -91.27%
Activity (OVCAR-8): -11.99%
Activity (NCI/ADR-RES): -16.65%
Activity (SK-OV-3): -20.08%
Activity (786-0): -36.85%
Activity (A498): -94.19%
Activity (ACHN): 3.07%
Activity (CAKI-1): -11.28%
Activity (RXF 393): -40.51%
Activity (SN12C): -86.04%
Activity (TK-10): -13.65%
Activity (UO-31): -62.16%
Activity (PC-3): 4.12%
Activity (DU-145): -94.06%
Activity (MCF7): -42.17%
Activity (MDA-MB-231): 7.51%
Activity (Hs-578T): -2.26%
Activity (BT-549): -93.17%
Activity (T47D): 30.96%
Activity (MDA-MB-468): -23.55%

— ChEMBL document CHEMBL4420075, “Seriniquinones, melanoma-specific anticancer agents” (2016)
